Entries after “also recorded” stand apart in the source; their conditions may differ.
Key:
[1] = test system: wart-shaped excrescence; assay: topical treatment of a wart-shaped excrescence (Example 9); format: in vivo, human
Method: A person presented a wart-shaped excrescence of increasing size (diameter: about 5 mm; height: about 3 mm), formed at the site of a stab wound on their right middle finger after an initial inflammatory reaction. The excrescence grew over a period of about 1.5 years. There was heavy vascularization at the site, as well as superficial furrowing. The position of the wart (side facing the ring finger), made it quite susceptible to injury.
The patient was treated by topically administering a composition containing 40 mg/ml hexadecylphosphocholine, 317 mg/ml of 3-propoxypropyleneglycol, 158 mg/ml of hexyloxypropyleneglycol, and 158 mg/ml of nonyloxypropyleneglycol, in solution, and then a solution containing 60 mg/ml of the hexadecy/phosphocholine, and the other components above, in the same amounts. The solutions were administered topically, 2-3 times per day.
The excrescence rapidly developed a horny surface, and regressed. Cornified residues were removable without bleeding. The treatment was terminated […] the surrounding skin level was reached. This took about 6 weeks. When the patient was examined about 8 weeks later, the condition was stable. […] It is believed that this was the result of regeneration of the epidermis in the excrescence region.

[2] = test system: chemically-induced mammary carcinomas; assay: chemically-induced mammary carcinomas in rats, oral potable solution; format: in vivo, rat; settings: daily doses of 20, 40 and 60 mg/kg body weight
From the text: For oral administration, the compounds of formula I are advantageously used in the form of a potable solution. Suitable potable carriers for this purpose include milks, cocoa, fruit juices and drinking water. The preparation of such potable solutions can involve, for example, diluting a concentrated alcoholic solution of a compound of the formula I or I′ with water or with another one of the previously mentioned carriers. […] The tumor model used for these experiments was a so-called hard model. This means that the findings obtained with this model can also be applied to humans.

Compound	condition at follow-up ([1]; examined about 8 weeks after end of treatment)	effect on the excrescence ([1]; person, topical 2-3 times per day, 40 then 60 mg/ml in propoxy-/hexyloxy-/nonyloxypropyleneglycol solution)	damage to surrounding healthy skin regions ([1]; topical)	time of treatment until termination (before surrounding skin level was reached) ([1]; topical 2-3 times per day)	skin reactions ([1]; topical, reddening disappeared after about 2 weeks)	remission of chemically-induced mammary carcinomas [2]
CCCCCCCCCCCCCCCCOP(=O)([O-])OCC[N+](C)(C)C [hexadecylphosphocholine]	stable	regressed	no apparent damage	about 6 weeks	slight reddening of the skin; also recorded: slight peeling of healthy skin	
CCCCCCCC/C=C\CCCCCCCCOP(=O)([O-])OCC[N+](C)(C)C [oleylphosphocholine]						complete remission
